These results are taken from ChEMBL document CHEMBL4732259, “Imidazo[1,2-c]pyrimidin-5(6H)-one inhibitors of CDK2: Synthesis, kinase inhibition and co-crystal structure” (Eur J Med Chem, 2021).

Test [1] concerns K562. The experiment in a line: Antiproliferative activity against human K562 cells assessed as cell viability at 10 uM incubated for 72 hrs by resazurin assay. Type of test: functional. The conditions noted are these: read-out: Activity. For orientation: Resazurin is reduced to fluorescent resorufin, in cell work by metabolically active cells.
Test [2] relates to MOLM-13. In words: Antiproliferative activity against human MOLM-13 cells assessed as cell viability at 10 uM incubated for 72 hrs by resazurin assay. Format: functional. The conditions noted are these: read-out: Activity.
Test [3] addresses T1, Cyclin-dependent kinase 2/cyclin E1 (Homo sapiens, UniProt P24941). In words: Inhibition of CDK2/cyclin E (unknown origin) using peptide substrate in presence of [gamma33P]ATP by image analyser. Format: protein-complex assay.
Test [4] deals with MV4-11. In words: Antiproliferative activity against human MV4-11 cells assessed as cell viability at 10 uM incubated for 72 hrs by resazurin assay. Format: functional. The conditions noted are these: read-out: Activity.
Test [5] has as its target T1, Cyclin-dependent kinase 2/cyclin E1. In words: Inhibition of CDK2/cyclin E (unknown origin) expressed in baculovirus infected Sf9 cells using histone H1 as substrate in presence of [gamma33P]ATP by image analyser.
Test [6] concerns the target Cyclin-dependent kinase 4/cyclin D1 (Homo sapiens, UniProt P11802). In words: Inhibition of CDK4/cyclin D1 (unknown origin) using peptide substrate in presence of [gamma33P]ATP by image analyser. Format: protein-complex assay.
Test [7] concerns the target CDK2/Cyclin A2 (Homo sapiens, UniProt P24941). In words: Inhibition of CDK2/cyclin A2 (unknown origin) using peptide substrate in presence of [gamma33P]ATP by image analyser. Type of test: protein-complex assay.
Test [8] deals with Cyclin-dependent kinase 1/cyclin B1 (Homo sapiens, UniProt P06493). In words: Inhibition of CDK1/cyclin B (unknown origin) using peptide substrate in presence of [gamma33P]ATP by image analyser. Format: protein-complex assay.
Sequence of Cyclin-dependent kinase 1/cyclin B1 (P06493 whole entry): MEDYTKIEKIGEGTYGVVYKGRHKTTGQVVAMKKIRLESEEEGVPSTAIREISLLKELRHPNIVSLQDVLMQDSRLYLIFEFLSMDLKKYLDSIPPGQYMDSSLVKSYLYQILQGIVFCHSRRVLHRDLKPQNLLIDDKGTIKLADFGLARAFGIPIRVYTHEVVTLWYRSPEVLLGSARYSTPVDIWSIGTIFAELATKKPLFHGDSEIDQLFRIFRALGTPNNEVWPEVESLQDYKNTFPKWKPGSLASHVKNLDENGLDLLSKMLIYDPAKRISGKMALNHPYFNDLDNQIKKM
Sequence of Cyclin-dependent kinase 1/cyclin B1 (P14635 whole entry, further chain): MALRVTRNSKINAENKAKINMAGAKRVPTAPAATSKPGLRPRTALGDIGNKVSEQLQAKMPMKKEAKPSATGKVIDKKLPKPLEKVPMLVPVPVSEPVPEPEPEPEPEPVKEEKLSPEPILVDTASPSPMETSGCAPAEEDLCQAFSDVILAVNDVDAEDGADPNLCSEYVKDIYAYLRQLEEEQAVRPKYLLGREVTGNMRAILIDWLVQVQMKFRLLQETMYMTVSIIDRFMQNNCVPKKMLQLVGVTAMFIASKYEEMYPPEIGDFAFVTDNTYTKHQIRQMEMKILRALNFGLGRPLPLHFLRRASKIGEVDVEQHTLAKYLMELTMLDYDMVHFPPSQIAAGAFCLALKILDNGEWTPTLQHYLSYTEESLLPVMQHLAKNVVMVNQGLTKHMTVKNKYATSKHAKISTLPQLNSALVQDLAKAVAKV
Test [9] is described as follows: Inhibition of CDK3/cyclin A2 (unknown origin) using peptide substrate in presence of [gamma33P]ATP by image analyser. Also noted: species or system Homo sapiens.
Test [10] deals with CDK9/cyclin T1 (Homo sapiens, UniProt P50750). In words: Inhibition of CDK9/cyclin T1 (unknown origin) using peptide substrate in presence of [gamma33P]ATP by image analyser. Format: protein-complex assay.
Sequence of CDK9/cyclin T1 (O60563 whole entry): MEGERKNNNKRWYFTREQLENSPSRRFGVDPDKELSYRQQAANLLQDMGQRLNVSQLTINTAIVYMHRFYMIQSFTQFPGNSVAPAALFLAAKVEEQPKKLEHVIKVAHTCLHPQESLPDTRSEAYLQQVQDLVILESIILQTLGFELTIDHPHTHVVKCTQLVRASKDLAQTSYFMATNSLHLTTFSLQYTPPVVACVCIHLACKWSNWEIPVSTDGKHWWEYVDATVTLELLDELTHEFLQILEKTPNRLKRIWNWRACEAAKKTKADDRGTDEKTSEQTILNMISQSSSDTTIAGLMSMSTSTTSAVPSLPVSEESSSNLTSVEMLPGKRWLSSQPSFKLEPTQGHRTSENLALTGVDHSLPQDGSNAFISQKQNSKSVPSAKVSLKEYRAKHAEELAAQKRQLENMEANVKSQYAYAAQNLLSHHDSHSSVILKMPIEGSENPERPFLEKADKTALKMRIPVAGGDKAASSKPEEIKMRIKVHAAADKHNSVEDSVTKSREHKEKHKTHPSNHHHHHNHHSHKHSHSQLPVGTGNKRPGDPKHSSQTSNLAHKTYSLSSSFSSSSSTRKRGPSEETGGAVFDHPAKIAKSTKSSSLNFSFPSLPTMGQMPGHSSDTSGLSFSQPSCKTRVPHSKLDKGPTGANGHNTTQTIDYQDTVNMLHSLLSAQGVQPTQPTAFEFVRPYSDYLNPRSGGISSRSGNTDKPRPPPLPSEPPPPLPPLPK
Sequence of CDK9/cyclin T1 (P50750 whole entry): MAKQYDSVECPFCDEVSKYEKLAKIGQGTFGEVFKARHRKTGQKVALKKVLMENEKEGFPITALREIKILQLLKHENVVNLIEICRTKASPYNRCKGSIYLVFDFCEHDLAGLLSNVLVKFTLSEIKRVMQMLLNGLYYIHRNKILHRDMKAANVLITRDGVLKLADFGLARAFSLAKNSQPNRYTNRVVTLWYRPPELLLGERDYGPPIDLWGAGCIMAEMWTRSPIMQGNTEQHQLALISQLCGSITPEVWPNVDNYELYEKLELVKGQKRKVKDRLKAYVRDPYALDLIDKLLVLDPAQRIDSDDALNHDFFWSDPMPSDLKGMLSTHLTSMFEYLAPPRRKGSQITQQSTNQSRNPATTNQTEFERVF
In test [11] the target is Cyclin-dependent kinase 4/cyclin D1 (Homo sapiens) (UniProt P11802+P24385). In words: Inhibition of CDK4/cyclin D1 (unknown origin) at 20 uM using peptide substrate in presence of [gamma33P]ATP by image analyser relative to control. Format: protein-complex assay.
Test [12] has as its target T2, Cyclin-dependent kinase 2 (Homo sapiens, UniProt P24941). The experiment in a line: Binding affinity to CDK2 (unknown origin) assessed as change in enthalpy by isothermal titration calorimetry. A general note: Isothermal titration calorimetry measures the heat released or taken up as one component is titrated into another.
Test [13] has as its system MV4-11. The experiment in a line: Induction of cell cycle arrest in human MV4-11 cells assessed as accumulation at sub-G1 phase at high dose after 72 hrs by propidium iodide staining based flow cytometry analysis. Format: functional.
In test [14] the test system is MV4-11. In words: Antiproliferative activity against human MV4-11 cells assessed as growth inhibition after 72 hrs by resazurin assay. Type of test: functional.
For test [15], the target named is T2, Cyclin-dependent kinase 2. The experiment in a line: Binding affinity to CDK2 (unknown origin) assessed as change in entropy by isothermal titration calorimetry.
The subject of test [16] is MOLM-13. The experiment in a line: Antiproliferative activity against human MOLM-13 cells assessed as growth inhibition after 72 hrs by resazurin assay. Type of test: functional.
The target of test [17] is T2, Cyclin-dependent kinase 2.
Description: Binding affinity to CDK2 (unknown origin) assessed as gibbs free energy change by isothermal titration calorimetry
For test [18], the target named is T2, Cyclin-dependent kinase 2. In words: Binding affinity to CDK2 (unknown origin) by isothermal titration calorimetry.
Test [19] deals with MV4-11. The experiment in a line: Induction of cell cycle arrest in human MV4-11 cells assessed as reduction in S phase cells at high dose after 24 to 72 hrs by propidium iodide staining based flow cytometry analysis. Type of test: functional. Conditions: time 24-72 hrs. On the technique in general: A flow cytometer gives signals particle by particle.
Test [20] concerns MV4-11. The experiment in a line: Induction of cell cycle arrest in human MV4-11 cells assessed as accumulation at G1 phase after 24 to 72 hrs by propidium iodide staining based flow cytometry analysis. Type of test: functional. The conditions noted are these: dose 6-100 µM, time 24-72 hrs.

Active and inactive are the calls of the source. The rule behind the calls is not given here.

Sequence of Cyclin-dependent kinase 4/cyclin D1 (P11802 whole entry): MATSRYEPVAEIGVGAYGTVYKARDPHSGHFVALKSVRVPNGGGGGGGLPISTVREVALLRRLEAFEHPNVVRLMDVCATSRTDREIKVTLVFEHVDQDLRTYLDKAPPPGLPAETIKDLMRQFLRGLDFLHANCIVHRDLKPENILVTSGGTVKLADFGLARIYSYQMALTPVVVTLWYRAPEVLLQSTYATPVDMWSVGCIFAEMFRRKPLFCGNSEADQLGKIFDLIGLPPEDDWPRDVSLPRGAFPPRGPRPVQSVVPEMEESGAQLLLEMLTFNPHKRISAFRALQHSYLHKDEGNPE
Sequence of Cyclin-dependent kinase 4/cyclin D1 (P24385 whole entry, further chain): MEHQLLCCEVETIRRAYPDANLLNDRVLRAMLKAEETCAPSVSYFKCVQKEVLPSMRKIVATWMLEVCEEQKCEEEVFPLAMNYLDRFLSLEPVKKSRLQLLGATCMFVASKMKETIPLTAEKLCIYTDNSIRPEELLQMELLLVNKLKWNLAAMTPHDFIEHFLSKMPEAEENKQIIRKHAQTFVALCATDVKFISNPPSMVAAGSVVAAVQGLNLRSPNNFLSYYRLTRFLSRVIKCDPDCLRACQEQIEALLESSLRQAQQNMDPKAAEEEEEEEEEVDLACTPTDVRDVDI

In the case of `O=C(O)Cn1cc(C2CCCCC2)c2nccn2c1=O`, the viability at 10 µM in [1] came to 108%; in test [2] it was 90.3%; in test [4] it was 94.7%. In addition, in test [3], the 50% inhibitory concentration (IC50) was above 50 µM.
For `O=c1[nH]cc(-c2ccccc2)c2ncc(I)n12` the same measures were 109%, 77.4%, 72.6% and above 25 µM.
The like results for `O=c1[nH]cc(-c2ccccc2)c2ncc(Br)n12` were, in that order, 109%, 82.7%, 78.6% and above 50 µM.
`O=c1[nH]cc(-c2ccccc2)c2nccn12`: the viability at 10 µM in test [1] was found to be 108%; in test [2], 87.4%; in test [4] it was 89.2%. Besides, in test [5], the IC50 is 6.6 µM.
Turning to `O=c1[nH]cc(C2CCCCC2)c2nc(I)cn12`, the viability at 10 µM in test [1] amounted to 101%; in test [2] it was 33.8%; in [4], 40.1%. Further, in test [3], the concentration for half-maximal inhibition (IC50) worked out at 6.5 µM.
Consider `O=c1[nH]cc(-c2cccc(O)c2)c2nccn12`, for which the viability at 10 µM in test [1] stood at 104%; in [2], 85.6%; in [4] it was 82%. The IC50 in test [3] was 4.8 µM.
The like results for `O=c1[nH]cc(-c2ccccc2)c2nc(I)cn12` were, in that order, 110%, 63.3%, 62.6% and above 25 µM.
`O=c1n(CCO)cc(C2CCCCC2)c2nccn12`: the viability at 10 µM in test [1] is 103%; in test [2], 91.9%; in test [4] it was 88.4%. Moreover, the concentration for half-maximal inhibition (IC50) in test [3] was 1.5 µM.
As to `O=c1[nH]cc(C2=CCCC2)c2nccn12`, the viability at 10 µM was determined as 106% in [1], 93.4% in [2] and 88.2% in [4]. Moreover, the IC50 in test [3] is 4.9 µM.
With `O=c1[nH]cc(C2CCCC2)c2nccn12`, the viability at 10 µM was 105% in test [1], 90.5% in test [2] and 90.2% in [4]. Moreover, in test [3], the IC50 turned out to be 4 µM.
With `O=c1[nH]cc(-c2ccc(O)cc2Cl)c2nccn12`, the viability at 10 µM turned out to be 105% in [1], 86.2% in test [2] and 85% in test [4]. Further, in test [3], the half-inhibitory concentration (IC50) was 1.5 µM.
On to `O=c1[nH]cc(C2=CCCCC2)c2nccn12`, for which the viability at 10 µM in [1] was 101%; in test [2], 88.7%; in test [4], 80.6%. For the same compound, the IC50 in test [3] amounted to 1.2 µM.
For `O=c1[nH]cc(C2CCCCC2)c2ncc(I)n12` the same measures were 100%, 70.7%, 78.5% and 14.2 µM.
In the case of `NS(=O)(=O)c1ccc(Nc2nc(-c3cccc(-c4ccccc4)c3)c3nc[nH]c3n2)cc1`, the viability at 10 µM in test [1] was found to be 94.5%; in test [2] it was 98.3%; in test [4] it was 62.8%. Also, the IC50 in test [6] was above 20 µM; in test [7], 0.022 µM; in test [3], 0.031 µM; in [8] it was 4.3 µM; in test [9], 2.87 µM; in [10], 9.4 µM.
As to `O=c1[nH]cc(C2CCCCC2)c2nccn12`, the inhibition in test [11] was found to be 46%. For the same compound, the viability at 10 µM stood at 103% in [1], 84.8% in test [2] and 82.2% in test [4]. Also, the deltaH in [12] was -11.4 kcal/mol. In addition, the outcome in [13] and in test [19] was Active. In addition, the GI50 in test [14] and in [16] was 50 µM each time. The -TdeltaS in test [15] came to 3.92 kcal/mol. In addition, the 50% inhibitory concentration (IC50) in test [6] was found to be 14.3 µM; in [7], 0.68 µM; in [3] it was 0.66 µM; in test [8], 4.3 µM; in [9], 2.72 µM; in [10], 10 µM. In [17], this compound showed a deltaG of -7.48 kcal/mol. In test [18], the Kd was determined as 4.1 µM. Also, the Activity result in test [20] is “Dose-dependent effect”.
Regarding `COc1ccc(-c2cn3c(=O)[nH]cc(-c4ccc(OC)cc4)c3n2)cc1`, the viability at 10 µM in test [1] came out at 36.2%; in [2] it was 15.3%; in [4], 52%. Further, the half-maximal inhibitory concentration (IC50) in test [3] was above 25 µM.
The like results for `COc1ccc(-c2cn3c(=O)[nH]cc(F)c3n2)cc1` were, in that order, 109%, 51.8%, 42.9% and above 25 µM.
Consider `O=c1n(CCCO)cc(C2CCCCC2)c2nccn12`, for which the viability at 10 µM stood at 104% in test [1], 94.1% in test [2] and 91.7% in test [4]. For the same compound, the half-inhibitory concentration (IC50) in [3] was determined as 3 µM.
Turning to `Cn1cc(C2CCCCC2)c2nccn2c1=O`, the viability at 10 µM was determined as 105% in [1], 88.3% in test [2] and 89.3% in test [4]. Besides, the half-maximal inhibitory concentration (IC50) in test [3] amounted to 4.7 µM.
With `O=C1c2ccccc2C(=O)N1Cn1cc(C2CCCCC2)c2nccn2c1=O`, the viability at 10 µM in test [1] stood at 107%; in test [2], 91.3%; in test [4] it was 87.4%. The IC50 in test [3] is above 50 µM.
For `O=c1[nH]cc(/C=C/c2ccccc2)c2nccn12` the same measures were 107%, 55.6%, 42.3% and 17.8 µM.
As for `O=c1[nH]cc(-c2ccc(-c3c[nH]c(=O)n4ccnc34)cc2)c2nccn12`, the viability at 10 µM in test [1] turned out to be 111%; in [2] it was 87.5%; in test [4], 91.4%. Moreover, in [3], the half-maximal inhibitory concentration (IC50) is above 12.5 µM.
As for `CC(=O)OCCCn1cc(C2CCCCC2)c2nccn2c1=O`, the viability at 10 µM in [1] stood at 101%; in test [2], 93.8%; in test [4], 88.5%. In [3], the IC50 is 7.7 µM.
In the case of `CCOC(=O)Cn1cc(C2CCCCC2)c2nccn2c1=O`, the viability at 10 µM in test [1] amounted to 110%; in test [2] it was 90.3%; in test [4], 93.3%. Besides, in [3], the half-inhibitory concentration (IC50) was above 50 µM.
For the compound `O=c1[nH]cc(-c2ccccc2)c2nc(Br)cn12`, the viability at 10 µM in [1] turned out to be 105%; in test [2] it was 83.9%; in test [4], 77.2%. The IC50 in test [3] was 24.4 µM.
For the compound `O=c1[nH]cc(-c2ccccc2)c2nc(I)c(I)n12`, the viability at 10 µM in [1] was 113%; in test [2], 56.7%; in test [4], 63.1%. In test [3], the IC50 is above 12.5 µM.
In the case of `O=c1[nH]cc(-c2ccccc2)c2nc(-c3ccccc3)cn12`, the viability at 10 µM in test [1] was 105%; in test [2], 83.5%; in test [4], 84.1%. Moreover, the IC50 in [3] is above 50 µM.
For `O=c1[nH]cc(C2CCCCC2)c2nc(I)c(I)n12` the same measures were 99.5%, 53.9%, 57% and 4.6 µM.
For `O=c1[nH]cc(-c2ccsc2)c2nccn12` the same measures were 105%, 87.8%, 84.9% and 8.9 µM.
In the case of `NS(=O)(=O)c1ccc(Nc2nc(OCC3CCCCC3)c3nc[nH]c3n2)cc1`, the viability at 10 µM worked out at 103% in test [1], 66% in test [2] and 32.1% in test [4].

The term IC50 denotes the midpoint of a concentration-inhibition curve. What is called inhibition is how much of the control response was suppressed. A word on the GI50: it is the concentration giving 50% growth inhibition. What is called Kd is the concentration at which binding is half-saturated. Higher therefore signals lower affinity.
